Measured values taken from patent US11548900B2, “Oxazino-quinazoline and oxazino-quinoline type compound, preparation method and uses thereof” (BEIJING SCITECH-MQ PHARMACEUTICALS LIMITED, priority 2018, dated 2023).

Legend:
EGFR kinase = EGFR kinase (Homo sapiens (Human), UniProt P00533); assay: Inhibition of EGFR kinase activity (ULight-labeled JAK-1 (Tyr1023) peptide substrate); format: biochemical; settings: EGFR kinase 0.35 nM, ATP 150 μM, 2 hours
Procedure: (§1) The assay for the inhibition of EGFR and HER2 kinase activity by small molecular compounds was carried out using the method as follows:
(§2) 1) Dilution of the compounds
(§3) In a 96-well plate a, the compounds were diluted with DMSO using a 3-fold gradient dilution to form 11 concentrations, the 12th concentration is pure DMSO (as a positive control); and in a new 96-well plate b the above solutions were diluted 25 times with ultrapure water (DMSO concentration is 4%).
(§4) 2) Transferring the compounds to 384-well plate
(§5) The compound solutions diluted with ultrapure water in the 96-well plate b above was transferred to the corresponding wells of a 384-well plate in duplicate.
(§6) 3) Addition of 4×kinase solution: 2.5 μl of the above 4× kinase solution was taken using multichannel pipette and added to the corresponding reaction wells of the 384-well plate, mixed well and pre-reacted at room temperature for 5 minutes.
(§7) 4) Addition of 2×substrate/ATP mixed solution: 5 μl of the above 2×substrate/ATP mixed solution was taken using multichannel pipette and added to the corresponding reaction wells of the 384-well plate.
(§8) 5) Negative control: negative control wells were set in the 384-well plate, and 2.5 μl 4×substrate, 2.5 μl 4×enzyme solution, 2.5 μl 1×Kinase Assay Buffer and 2.5 μl ultrapure water containing 4% DMSO were added to each well.
(§9) 6) Mixed by centrifugation and kept at room temperature for 2 hours in the dark.
(§10) 7) Termination of the enzymatic reaction:
(§11) 5 μl of the above 4× stop solution was pipetted to the corresponding wells of the 384-well plate, centrifuged and mixed, and reacted at room temperature for 5 minutes.
(§12) 5 μl of the above 4× detection solution was pipetted into the corresponding wells of the 384-well plate, centrifuged and mixed, and reacted at room temperature for 1 hour.
(§13) 9) The 384-well plate was placed into a microplate reader and the signal was detected using the corresponding program.
(§14) 10) IC50 analysis: Well reading value=10000*EU665 value/EU615 value Inhibition rate=(reading value of positive control well−reading value of experimental well)/(reading value of positive control well−reading value of negative control well)*100% Corresponding IC50s can be calculated by entering the drug concentrations and the corresponding inhibition rates into GraphPad Prism 5.
Conditions of experiment for screening EGFR kinase inhibitory molecules:
The final concentration of EGFR kinase in the reaction system is 0.35 nM, and the final concentration of ATP is 150 μM, the final concentration of substrate ULight™-labeled JAK-1 (Tyr1023) Peptide is 100 nM, and the enzymatic reaction time is 2 hours.
(§15) The maximum final concentration of the compound in the reaction system is 2.5 μM, 11 concentrations were made with a 3-fold gradient dilution, and the minimal final concentration is 0.042 nM. The final concentration of DMSO is 1%.

HER2 kinase = HER2 kinase (Homo sapiens (Human), UniProt P04626); assay: Inhibition of HER2 kinase activity (ULight-labeled PolyGT substrate); format: biochemical; settings: HER2 kinase 10 nM, ATP 10 μM, 2 hours
Procedure: as §1, §2, §3, §4, §5, §6, §7, §8, §9, §10, §11, §12, §13, §14
Conditions of experiment for screening HER2 kinase inhibitory molecules:
The final concentration of HER2 kinase in the reaction system is 10 nM, the final concentration of ATP is 10 μM, the final concentration of substrate ULight™-labeled PolyGT is 100 nM, and the enzymatic reaction time is 2 hours.
as §15

BT474 cells = assay: Inhibition of cell proliferation, BT474 (CCK-8, 72 h); format: cell-based; settings: Homo sapiens, BT-474, 72 h incubation
Procedure: The assay for the inhibition of cell proliferation by small molecular compounds was carried out using the method as follows:
1. 600 μL pancreatin was added to a T75 cell culture flask, which was digested in a 37° C. incubator for about 1 min before 5 mL of DMEM complete culture solution was added, blew evenly, transferred to a 15 mL centrifuge tube, and centrifuged at 1000 rpm for 4 min;
2. The supernatant was removed and 5 mL DMEM complete culture solution was added, blew evenly, and 10 μL cell suspension was taken and mixed with 10 μL 0.4% Trypan Blue, and counted using a cell counter;
3. BT474 and HCC827 cell lines were seeded in 96-well plates at a cell density of 10,000 and 3000 cells/well/80 μL, respectively, and cultured overnight. Only sterile water was added to the 36 wells on the periphery of the 96-well plate without adding cells, and only the 60 wells in the center of the 96-well plate were used for cell assays and controls;
4. Dilution of compounds: the compounds were diluted with a 3-fold dilution to make 10 concentrations in total with an initial concentration of 10 mM;
5. 20 μL of different compounds with different concentrations were added to each well, and 20 μL of complete culture solution was added to the remaining wells. The final concentration of DMSO in each well is 0.25%;
6. After 72 h of incubation, 10 μL CCK-8 reagent was added to each well, and incubated at 37° C. for 1-2 h; and the OD value was read at 450 nm;
7. Cell survival rate (%)=[(As−Ab)/(Ac−Ab)]*100%
As: Assay well (medium containing cell, CCK-8, compound)
Ac: Control well (medium containing cell, CCK-8)
Ab: Blank well (CCK-8, medium without cell and compound)
8. The value was imported into Graphpad Prism5 software for the calculation of IC50s (compound concentration at which 50% maximum survival rate is observed).

EGFR kinase, sequence (P00533 25-1210): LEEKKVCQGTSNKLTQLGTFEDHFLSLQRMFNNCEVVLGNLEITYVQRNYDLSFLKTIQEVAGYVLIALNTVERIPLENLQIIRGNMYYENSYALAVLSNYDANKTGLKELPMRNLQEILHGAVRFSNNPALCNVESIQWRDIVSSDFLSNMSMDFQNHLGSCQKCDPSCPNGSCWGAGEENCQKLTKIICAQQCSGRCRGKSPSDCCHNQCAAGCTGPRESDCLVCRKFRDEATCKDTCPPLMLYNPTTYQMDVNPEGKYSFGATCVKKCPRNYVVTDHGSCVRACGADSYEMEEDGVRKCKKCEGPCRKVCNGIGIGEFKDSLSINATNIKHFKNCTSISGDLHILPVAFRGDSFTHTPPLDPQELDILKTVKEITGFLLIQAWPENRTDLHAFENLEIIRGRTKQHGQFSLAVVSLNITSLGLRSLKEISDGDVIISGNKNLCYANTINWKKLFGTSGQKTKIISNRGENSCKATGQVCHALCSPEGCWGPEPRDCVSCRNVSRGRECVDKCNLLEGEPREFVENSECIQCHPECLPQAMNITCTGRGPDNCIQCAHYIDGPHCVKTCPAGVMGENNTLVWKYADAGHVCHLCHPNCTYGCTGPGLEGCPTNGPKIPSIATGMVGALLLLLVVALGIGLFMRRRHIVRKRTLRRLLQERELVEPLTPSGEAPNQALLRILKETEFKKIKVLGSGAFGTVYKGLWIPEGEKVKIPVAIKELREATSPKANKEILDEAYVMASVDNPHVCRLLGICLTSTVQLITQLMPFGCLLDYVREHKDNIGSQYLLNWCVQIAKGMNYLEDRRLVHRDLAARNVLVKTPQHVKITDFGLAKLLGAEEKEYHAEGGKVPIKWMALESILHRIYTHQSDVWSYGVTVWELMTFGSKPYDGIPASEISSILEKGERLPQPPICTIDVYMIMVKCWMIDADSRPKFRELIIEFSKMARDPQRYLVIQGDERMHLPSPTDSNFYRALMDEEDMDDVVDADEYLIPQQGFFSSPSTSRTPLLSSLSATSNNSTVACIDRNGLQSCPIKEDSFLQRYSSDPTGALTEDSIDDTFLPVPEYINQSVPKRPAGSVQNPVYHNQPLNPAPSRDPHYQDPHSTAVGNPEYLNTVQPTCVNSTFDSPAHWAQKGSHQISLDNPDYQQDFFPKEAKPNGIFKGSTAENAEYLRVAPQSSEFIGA
HER2 kinase, sequence (P04626 23-1255): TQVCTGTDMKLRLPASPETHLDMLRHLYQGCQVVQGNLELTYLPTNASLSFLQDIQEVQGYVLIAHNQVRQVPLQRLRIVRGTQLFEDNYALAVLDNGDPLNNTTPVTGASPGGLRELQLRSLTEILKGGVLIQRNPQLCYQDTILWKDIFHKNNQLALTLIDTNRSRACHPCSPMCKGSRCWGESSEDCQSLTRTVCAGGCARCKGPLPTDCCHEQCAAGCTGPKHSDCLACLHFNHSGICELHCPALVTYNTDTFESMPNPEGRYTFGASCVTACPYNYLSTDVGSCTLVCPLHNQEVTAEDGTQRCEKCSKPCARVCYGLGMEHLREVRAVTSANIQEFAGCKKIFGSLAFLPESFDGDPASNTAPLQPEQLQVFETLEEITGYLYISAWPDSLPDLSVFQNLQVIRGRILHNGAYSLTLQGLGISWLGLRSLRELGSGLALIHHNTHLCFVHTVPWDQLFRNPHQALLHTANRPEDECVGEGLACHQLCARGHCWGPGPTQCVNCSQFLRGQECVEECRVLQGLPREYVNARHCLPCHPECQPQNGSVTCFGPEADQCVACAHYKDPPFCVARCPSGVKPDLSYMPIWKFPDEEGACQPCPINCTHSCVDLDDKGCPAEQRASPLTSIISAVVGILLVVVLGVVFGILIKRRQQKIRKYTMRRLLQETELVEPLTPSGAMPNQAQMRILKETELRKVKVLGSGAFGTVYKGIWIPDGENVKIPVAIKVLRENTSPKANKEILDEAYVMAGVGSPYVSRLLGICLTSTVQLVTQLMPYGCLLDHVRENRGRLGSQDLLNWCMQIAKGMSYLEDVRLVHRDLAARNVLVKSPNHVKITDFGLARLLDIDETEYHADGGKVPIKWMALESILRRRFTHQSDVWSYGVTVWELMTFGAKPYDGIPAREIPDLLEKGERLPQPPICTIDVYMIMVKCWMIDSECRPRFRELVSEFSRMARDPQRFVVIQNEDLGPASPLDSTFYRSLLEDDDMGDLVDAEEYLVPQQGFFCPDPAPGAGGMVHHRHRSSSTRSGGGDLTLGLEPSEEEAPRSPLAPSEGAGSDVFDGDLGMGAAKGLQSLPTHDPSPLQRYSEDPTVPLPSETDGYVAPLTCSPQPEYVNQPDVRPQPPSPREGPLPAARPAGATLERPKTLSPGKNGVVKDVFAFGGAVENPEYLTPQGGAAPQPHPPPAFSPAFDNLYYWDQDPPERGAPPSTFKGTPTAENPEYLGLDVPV

IC50 (EGFR kinase) [nM]	IC50 (HER2 kinase) [nM]	IC50 (BT474 cells) [nM]	Structure (SMILES)
≤ 50	≤ 50		C=CC(=O)N1CCOc2c1ccc1ncnc(Nc3ccc(Oc4ccccc4)cc3)c21 [Example 2, 1-(10-((4-phenoxyphenyl)amino)-2,3-dihydro-4H-[1,4]oxazino[2,3-f]quinazolin-4-yl)prop-2-en-1-one]
≤ 50	≤ 50		C=CC(=O)N1CCOc2c1ccc1ncnc(Nc3ccc(OCc4cccc(F)c4)c(Cl)c3)c21 [Example 3]
≤ 50	≤ 50		C=CC(=O)N1CCOc2c1ccc1ncnc(Oc3ccc(Oc4ccccc4)cc3)c21 [Example 33, 1-(10-(4-phenoxyphenoxy)-2,3-dihydro-4H-[1,4]oxazino[2,3-f]quinazolin-4-yl)prop-2-en-1-one]
≤ 50	≤ 50		C=CC(=O)N1CCOc2c1ccc1ncnc(Oc3ccc(OCc4ccccn4)c(Cl)c3)c21 [Example 34, 1-(10-(3-chloro-4-(pyridin-2-ylmethoxy)phenoxy)-2,3-dihydro-4H-[1,4]oxazino[2,3-f]quinazolin-4-yl)prop-2-en-1-one]
≤ 50	≤ 50		C=CC(=O)N1CCOc2c1ccc1ncnc(Oc3ccc(OCc4cccc(F)c4)c(Cl)c3)c21 [Example 35, 1-(10-(3-chloro-4-((3-fluorobenzyl)oxy)phenoxy)-2,3-dihydro-4H-[1,4]oxazino[2,3-f]quinazolin-4-yl)prop-2-en-1-one]
≤ 50	≤ 50		C=CC(=O)N1CCOc2c1ccc1ncnc(Oc3ccc(Oc4ccc(F)cc4)cc3)c21 [Example 37, 1-(10-(4-(4-fluorophenoxy)phenoxy)-2,3-dihydro-4H-[1,4]oxazino[2,3-f]quinazolin-4-yl)prop-2-en-1-one]
≤ 50	≤ 50		C=CC(=O)N1CCOc2c1ccc1ncnc(Oc3ccc(OCc4ccccn4)cc3)c21 [Example 39, 1-(10-(4-(pyridin-2-ylmethoxy)phenoxy)-2,3-dihydro-4H-[1,4]oxazino[2,3-f]quinazolin-4-yl)prop-2-en-1-one]
≤ 50	≤ 50		C=CC(=O)N1CCOc2c1ccc1ncnc(Oc3ccc(OCc4ccccc4F)cc3)c21 [Example 40, 1-(10-(4-((2-fluorobenzyl)oxy)phenoxy)-2,3-dihydro-4H-[1,4]oxazino[2,3-f]quinazolin-4-yl)prop-2-en-1-one]
≤ 50	≤ 50		C=CC(=O)N1CCOc2c1ccc1ncnc(Oc3ccc(OCc4cccc(F)c4)cc3)c21 [Example 41, 1-(10-(4-((3-fluorobenzyl)oxy)phenoxy)-2,3-dihydro-4H-[1,4]oxazino[2,3-f]quinazolin-4-yl)prop-2-en-1-one]
≤ 50	≤ 50		C=CC(=O)N1CCOc2c1ccc1ncnc(Oc3ccc(OCc4ccc(F)cc4)cc3)c21 [Example 42, 1-(10-(4-((4-fluorobenzyl)oxy)phenoxy)-2,3-dihydro-4H-[1,4]oxazino[2,3-f]quinazolin-4-yl)prop-2-en-1-one]
≤ 50	≤ 50		CN(C)C/C=C/C(=O)N1CCOc2c1ccc1ncnc(Nc3ccc(OCc4cccc(F)c4)c(Cl)c3)c21 [Example 45, (E)-1-(10-((3-chloro-4-((3-fluorobenzyl)oxy)phenyl)amino)-2,3-dihydro-4H-[1,4]oxazino[2,3-f]quinazolin-4-yl)-4-(dimethylamino)but-2-en-1-one]
≤ 50	≤ 50		CN(C)C/C=C/C(=O)N1CCOc2c1ccc1ncnc(Nc3ccc(OCc4cccc(F)c4)c(C(F)(F)F)c3)c21 [Example 67]

The next lines start with the compound.

Structure (SMILES)	IC50 (EGFR kinase) [nM]	IC50 (HER2 kinase) [nM]	IC50 (BT474 cells) [nM]
C=CC(=O)N1CCOc2c1ccc1ncnc(Nc3ccc(OCc4ccccn4)c(Cl)c3)c21 [Example 4, 1-(10-((3-chloro-4-(pyridin-2-ylmethoxy)phenyl)amino)-2,3-dihydro-4H-[1,4]oxazino[2,3-f]quinazolin-4-yl)prop-2-en-1-one]	≤ 50	≤ 50	
CN(C)C/C=C/C(=O)N1CCOc2c1ccc1ncnc(Nc3ccc(Oc4cccc(C(F)(F)F)c4)cc3)c21 [Example 43, (E)-4-(dimethylamino)-1-(10-((4-(3-(trifluoromethyl)phenoxy)phenyl)amino)-2,3-dihydro-4H-[1,4]oxazino[2,3-f]quinazolin-4-yl)but-2-en-1-one]	≤ 50	≤ 50	
CN(C)C/C=C/C(=O)N1CCOc2c1ccc1ncnc(Nc3ccc(Oc4ccc(Cl)cc4)cc3)c21 [Example 52, (E)-4-(dimethylamino)-1-(10-((4-(4-chlorophenoxy)phenyl)amino)-2,3-dihydro-4H-[1,4]oxazino[2,3-f]quinazolin-4-yl)but-2-en-1-one]	≤ 50	≤ 50	
CC(Oc1ccc(Nc2ncnc3ccc4c(c23)OCCN4C(=O)/C=C/CN(C)C)cc1)c1ccccn1 (stereo not shown) [Example 75, (E)-4-(dimethylamino)-1-(10-((4-(1-(pyridin-2-yl)ethoxy)phenyl)amino)-2,3-dihydro-4H-[1,4]oxazino[2,3-f]quinazolin-4-yl)but-2-en-1-one]	50 to 500	≤ 50	
CN(C/C=C/C(=O)N1CCOc2c1ccc1ncnc(Nc3ccc(OCc4ccccn4)c(Cl)c3)c21)CCCO [Example 120, (E)-1-(10-((3-chloro-4-(pyridin-2-ylmethoxy)phenyl)amino)-2,3-dihydro-4H-[1,4]oxazino[2,3-f]quinazolin-4-yl)-4-((3-hydroxypropyl)(methyl)amino)but-2-en-1-one]		≤ 50	≤ 50
C[C@H]1CN(C)CCN1C/C=C/C(=O)N1CCOc2c1ccc1ncnc(Nc3ccc(OCc4ccccn4)c(Cl)c3)c21 [Example 121, (S,E)-1-(10-((3-chloro-4-(pyridin-2-ylmethoxy)phenyl)amino)-2,3-dihydro-4H-[1,4]oxazino[2,3-f]quinazolin-4-yl)-4-(2,4-dimethylpiperazin-1-yl)but-2-en-1-one]		≤ 50	≤ 50
CN(C/C=C/C(=O)N1CCOc2c1ccc1ncnc(Nc3ccc(OCc4ccccn4)c(Cl)c3)c21)CCO [Example 122, (E)-1-(10-((3-chloro-4-(pyridin-2-ylmethoxy)phenyl)amino)-2,3-dihydro-4H-[1,4]oxazino[2,3-f]quinazolin-4-yl)-4-((2-hydroxyethyl)(methyl)amino)but-2-en-1-one]		≤ 50	≤ 50
C[C@@H]1CN(C)CCN1C/C=C/C(=O)N1CCOc2c1ccc1ncnc(Nc3ccc(OCc4ccccn4)c(Cl)c3)c21 [Example 123, (R,E)-1-(10-((3-chloro-4-(pyridin-2-ylmethoxy)phenyl)amino)-2,3-dihydro-4H-[1,4]oxazino[2,3-f]quinazolin-4-yl)-4-(2,4-dimethylpiperazin-1-yl)but-2-en-1-one]		≤ 50	≤ 50
